The values that follow come from ChEMBL document CHEMBL3120091, “Microwave-assisted synthesis and myorelaxant activity of 9-indolyl-1,8-acridinedione derivatives” (2014).

The source made the active and inactive calls. No cut-off for these calls is given here.

Assay [1] concerns Stomach. Nature of the assay: Myorelaxant activity in New Zealand white rabbit gastric fundus smooth muscle assessed as relaxation of noradrenaline-induced contraction in presence of glibenclamide. The assay is classed as functional, tissue-based. As to conditions: Oryctolagus cuniculus.
In assay [2] the test system is Stomach. Nature of the assay: Myorelaxant activity in New Zealand white rabbit gastric fundus smooth muscle assessed as relaxation of noradrenaline-induced contraction at 3 x 10^-4 M relative to control. It is filed as functional. As to conditions: Oryctolagus cuniculus.
For assay [3], the system named is Stomach. Nature of the assay: Myorelaxant activity in New Zealand white rabbit gastric fundus smooth muscle assessed as relaxation of noradrenaline-induced contraction in presence of tetraethylammonium chloride. As to conditions: Oryctolagus cuniculus. It is filed as functional, tissue-based.
Assay [4] deals with Stomach. Nature of the assay: Myorelaxant activity in New Zealand white rabbit gastric fundus smooth muscle assessed as relaxation of noradrenaline-induced contraction. The assay is classed as functional, Oryctolagus cuniculus.
Assay [5] relates to Stomach. Nature of the assay: Myorelaxant activity in New Zealand white rabbit gastric fundus smooth muscle assessed as relaxation of noradrenaline-induced contraction in presence of propranolol. As to conditions: Oryctolagus cuniculus. The assay is classed as functional, tissue-based.
The subject of assay [6] is Stomach. Nature of the assay: Myorelaxant activity in New Zealand white rabbit gastric fundus smooth muscle assessed as relaxation of noradrenaline-induced contraction in presence of indomethacin. The assay is classed as functional, tissue-based. As to conditions: Oryctolagus cuniculus.
In assay [7] the test system is Stomach. Nature of the assay: Myorelaxant activity in New Zealand white rabbit gastric fundus smooth muscle assessed as relaxation of noradrenaline-induced contraction in presence of L-NAME. The assay is classed as functional, tissue-based. The note with it: Oryctolagus cuniculus.

Take `CC1(C)CC(=O)C2=C(C1)NC1=C(C(=O)CC(C)(C)C1)C2c1c[nH]c2ccc(Br)cc12`: the result in assay [1] and in assay [3] was Active. For the same compound, in assay [2], the maximal response (Emax) at 300 µM was 71.5%. Moreover, the pD2 in assay [4] is recorded as 3.85.

For the compound `CC1(C)CC(=O)C2=C(C1)NC1=C(C(=O)CC(C)(C)C1)C2c1c[nH]c2cc(Br)ccc12`, the result in assay [1] and in assay [3] was Active. Also, the Emax at 300 µM in assay [2] stood at 52.7%. For the same compound, in assay [4], the pD2 is 4.25.

For `O=C1CCCC2=C1C(c1c[nH]c3cc(Br)ccc13)C1=C(CCCC1=O)N2`, the Emax entry in assay [2] was “inactive”. Moreover, the outcome in assay [5], in assay [6] and in assay [7] was Active. The pD2 result in assay [4] (Oryctolagus cuniculus) was “inactive”.

Regarding `CC1(C)CCC2=C(C1=O)C(c1c[nH]c3ccc(Br)cc13)C1=C(CCC(C)(C)C1=O)N2`, the result in assay [1] and in assay [3] was Active. In assay [2], the Emax at 300 µM stood at 17.5%. In addition, the pD2 in assay [4] is given as 4.46.

Regarding `CC1(C)CCC2=C(C1=O)C(c1c[nH]c3cc(Br)ccc13)C1=C(CCC(C)(C)C1=O)N2`, the result in assay [1] and in assay [3] was Active. In addition, the maximum response (Emax) at 300 µM in assay [2] was 12%. Moreover, in assay [4], the pD2 was 4.54.

In the case of `Cn1c(C2C3=C(CCCC3=O)NC3=C2C(=O)CCC3)cc2ccccc21`, in assay [2], the Emax result was “inactive”. Moreover, the outcome in assay [5], in assay [6] and in assay [7] was Active. Also, the pD2 result in assay [4] (Oryctolagus cuniculus) was “inactive”.

Regarding `Cn1c(C2C3=C(CC(C)(C)CC3=O)NC3=C2C(=O)CC(C)(C)C3)cc2ccccc21`, the result in assay [1] and in assay [3] was Active. In addition, the Emax at 300 µM in assay [2] was 34%. Also, the pD2 in assay [4] is recorded as 4.1.

Take `CC(N/C(=N\C#N)Nc1ccncc1)C(C)(C)C` (stereo not given) [PINACIDIL ANHYDROUS]: the Emax at 300 µM in assay [2] turned out to be 63.8%. The pD2 in assay [4] worked out at 3.9.

`O=C1CCCC2=C1C(c1c[nH]c3ccc(Br)cc13)C1=C(CCCC1=O)N2`: in assay [2], the Emax entry was “inactive”. The outcome in assay [5], in assay [6] and in assay [7] was Active. In assay [4] (Oryctolagus cuniculus), the pD2 result is “inactive”.

In the case of `Cn1cc(C2C3=C(CCCC3=O)NC3=C2C(=O)CCC3)c2ccccc21`, the Emax result in assay [2] is “inactive”. Besides, the outcome in assay [5], in assay [6] and in assay [7] was Active. In addition, the pD2 entry in assay [4] (Oryctolagus cuniculus) was “inactive”.

In the case of `Cn1c(C2C3=C(CCC(C)(C)C3=O)NC3=C2C(=O)C(C)(C)CC3)cc2ccccc21`, the outcome in assay [1] and in assay [3] was Active. The Emax at 300 µM in assay [2] was 11.6%. In addition, in assay [4], the pD2 stood at 4.6.

Turning to `Cn1cc(C2C3=C(CC(C)(C)CC3=O)NC3=C2C(=O)CC(C)(C)C3)c2ccccc21`, the result in assay [1] and in assay [3] was Active. The Emax at 300 µM in assay [2] amounted to 28.6%. Also, in assay [4], the pD2 is given as 4.28.

As for `Cn1cc(C2C3=C(CCC(C)(C)C3=O)NC3=C2C(=O)C(C)(C)CC3)c2ccccc21`, the Emax entry in assay [2] was “inactive”. Moreover, the result in assay [5], in assay [6] and in assay [7] was Active. In assay [4] (Oryctolagus cuniculus), the pD2 result is “inactive”.

What is called Emax is the maximal effect, on the per cent scale that the assay sets.
